The target of this assay is T1, FhePrx (recombinant 2-Cys peroxiredoxin of Fasciola hepatica) (Fasciola hepatica, UniProt P91883).
T1 sequence (P91883 1-194): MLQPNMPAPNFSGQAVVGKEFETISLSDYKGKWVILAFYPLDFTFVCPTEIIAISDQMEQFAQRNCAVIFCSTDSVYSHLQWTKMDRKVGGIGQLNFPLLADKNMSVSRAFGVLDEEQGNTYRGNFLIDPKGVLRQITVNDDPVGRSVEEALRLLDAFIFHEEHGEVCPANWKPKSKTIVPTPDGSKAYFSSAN
As to the kind of experiment: coupled NADPH oxidation assay. The class given is biochemical. The following applies: E. coli thioredoxin and thioredoxin reductase, 0.25 mM NADPH, 1 mM EDTA, 5 mM potassium phosphate pH 7.0, 22 °C.

Consider `CC(C)(OO)c1ccccc1` [Cumene hydroperoxide], for which the Km was found to be 12.7 µM.

Take `CC(C)(C)OO` [t-Butyl hydroperoxide]: the Michaelis constant (Km) came to 18.6 µM.
